Legend:
[1] = Cytotoxicity against human MCF7 cells assessed as cell growth inhibition after 48 hrs by MTT assay; assay type: functional, cell-based; conditions: MCF7, 48 h
[2] = Cytotoxicity against African green monkey Vero cells assessed as cell growth inhibition after 48 hrs by MTT assay; assay type: toxicity, cell-based; conditions: African green monkey (Chlorocebus sabaeus)
MCF7 [3] = assay: Selectivity index, ratio of IC50 for African green monkey Vero cells to IC50 for human MCF7 cells; assay type: functional
[4] = Cell cycle arrest in human MCF7 cells assessed as accumulation at sub-G0 phase at 0.5 uM after 18 to 24 hrs by propidium iodide staining based flow cytometry (reference value: 1.4 %); assay type: functional
[5] = Cell cycle arrest in human MCF7 cells assessed as accumulation at G0/G1 phase at 0.5 uM after 18 to 24 hrs by propidium iodide staining based flow cytometry (reference value: 67 %); assay type: functional
[6] = Cell cycle arrest in human MCF7 cells assessed as accumulation at S phase at 0.5 uM after 18 to 24 hrs by propidium iodide staining based flow cytometry (reference value: 8.5 %); assay type: functional
[7] = Cell cycle arrest in human MCF7 cells assessed as accumulation at G2/M phase at 0.5 uM after 18 to 24 hrs by propidium iodide staining based flow cytometry (reference value: 18.8 %); assay type: functional
MCF7 [8] = assay: Induction of apoptosis in human MCF7 cells assessed as viable cells after 24 to 48 hrs by Annexin V/7-AAD staining based flow cytometry (reference value: 72.30 %); assay type: functional
MCF7 [9] = assay: Induction of apoptosis in human MCF7 cells assessed as early apoptotic cells after 24 to 48 hrs by Annexin V/7-AAD staining based flow cytometry (reference value: 4.90 %); assay type: functional
MCF7 [10] = assay: Induction of apoptosis in human MCF7 cells assessed as late apoptotic cells after 24 to 48 hrs by Annexin V/7-AAD staining based flow cytometry (reference value: 16.05 %); assay type: functional
MCF7 [11] = assay: Induction of apoptosis in human MCF7 cells assessed as necrotic cells after 24 to 48 hrs by Annexin V/7-AAD staining based flow cytometry (reference value: 6.75 %); assay type: functional

Structure (SMILES)	IC50 [1]	IC50 at 48 h [2]	also measured
O=C(N/N=C/c1c(-c2cc3ccccc3oc2=O)[nH]c2ccccc12)c1ccc(Cl)cc1	> 200 µM	> 200 µM	
O=C(N/N=C/c1c(-c2cc3ccccc3oc2=O)[nH]c2ccccc12)c1ccccc1Cl	164 µM	> 200 µM	
O=C(N/N=C/c1c(-c2cc3ccccc3oc2=O)[nH]c2ccccc12)c1ccc(Cl)cc1F	> 200 µM	> 200 µM	
O=C(N/N=C/c1c(-c2cc3ccccc3oc2=O)[nH]c2ccccc12)c1cccc(Br)c1	> 200 µM	> 200 µM	
CC[C@]1(O)C[C@H]2CN(CCc3c([nH]c4ccccc34)[C@@](C(=O)OC)(c3cc4c(cc3OC)N(C=O)[C@H]3[C@@](O)(C(=O)OC)[C@H](OC(C)=O)[C@]5(CC)C=CCN6CC[C@]43[C@@H]65)C2)C1 [VINCRISTINE]	0.3 µM	0.9 µM	Ratio IC50 (MCF7 [3]): 3; Activity [4]: 5.1%; Activity [5]: 17.9%; Activity [6]: 7.8%; Activity [7]: 54.6%; Activity (MCF7 [8]): 56.1%; Activity (MCF7 [9]): 2.75%; Activity (MCF7 [10]): 17.7%; Activity (MCF7 [11]): 23.45%
O=C(N/N=C/c1c(-c2cc3ccccc3oc2=O)[nH]c2ccccc12)c1ccccc1F	> 200 µM	> 200 µM	
O=C(N/N=C/c1c(-c2cc3ccccc3oc2=O)[nH]c2ccccc12)c1ccccc1	> 200 µM	121 µM	
